Measured values published in PMC10799292, “The Role of β-Defensin 1 Against Porphyromonas gingivalis Lipopolysaccharide-Mediated Inflammation in the THP-1 Cell Line” (Cureus, 2023).
No end group written: not given here.

How the values were obtained:
Format in all cases: cell-based, human
[1] = test system: COX; test: Cyclooxygenase (COX) activity inhibition in lysate of Pg-LPS stimulated THP-1 cells; conditions: for COX Percentage inhibition Average / COX Percentage inhibition 1 / COX Percentage inhibition 2: Pg-LPS 1 µg/mL, 24 h; for COX Percentage inhibition Average: mean of duplicates; for COX Percentage inhibition 1: replicate 1; for COX Percentage inhibition 2: replicate 2
Description: (§1) For inducing differentiation of THP-1 cells into macrophages, the cell line was premixed with 25 ng/mL PMA and incubated for 48 hours. After incubation, 5x10^4 cells were activated with Pg-LPS (LPS: 1 µg/mL) for one hour. Pg-LPS stimulated cells were exposed to different concentrations (6.25, 12.5, and 25 ng/mL) of β-defensin 1 and incubated for 24 hours. After incubation, the following anti-inflammatory assays were conducted utilizing the cell lysate.
The cyclooxygenase (COX) activity was assayed by the method of Walker and Gierse. The cell lysate was incubated for one minute at 25°C with Tris-HCl buffer (pH 8), glutathione 5 mM/L, and hemoglobin 5 mM/L. Arachidonic acid 200 mM/L was added to initiate the reaction, and after 20 minutes at 37°C, 200 µL of 10% trichloroacetic acid in 1 N hydrochloric acid was added to terminate the reaction. After centrifugation and addition of 200 µL of 1% thiobarbituric acid, the tubes were boiled for 20 minutes. After cooling, the tubes were centrifuged for three minutes. By reading absorbance at […], COX activity was measured, and the percentage of COX activity inhibition was calculated as per the following formula

[2] = test system: Inducible nitric oxide synthase; test: Inducible nitric oxide synthase inhibition in lysate of Pg-LPS stimulated THP-1 cells; conditions: for Inducible nitric oxide synthase Percentage inhibition Average / Inducible nitric oxide synthase Percentage inhibition 1 / Inducible nitric oxide synthase Percentage inhibition 2: Pg-LPS 1 µg/mL, 24 h; for Inducible nitric oxide synthase Percentage inhibition Average: mean of duplicates; for Inducible nitric oxide synthase Percentage inhibition 1: replicate 1; for Inducible nitric oxide synthase Percentage inhibition 2: replicate 2
Description: as §1
Nitric oxide synthase was measured using the method reported by Salter et al.. The cell lysate was homogenized in 2 ml of 4-(2-hydroxyethyl)-1-piperazineethanesulfonic acid (HEPES) buffer. The assay system contained 0.1 mL of 2 µmol/L L-Arginine, 0.1 mL of 4 µmol/L manganese chloride, 0.1 mL of 10 mmol/L 30 µg dithiothreitol (DTT), 0.1 mL of 1 mmol/L NADPH, 0.1 mL of 4 µmol/L tetrahydropterin, 0.1 mL of 10µmol/L oxygenated hemoglobin, and 0.1 mL of cell lysate. Enzyme activity was measured by recording an increase in absorbance at 401 nm, and the following equation was used: […]

[3] = test system: THP-1 differentiated macrophage cell line; test: Cytotoxicity evaluation of β-defensin 1 by MTT method; conditions: 24 h, 12.5-200 ng/mL
Description: The THP-1 cell line was cultured in DMEM and supplemented with 10% FBS, sodium bicarbonate, L-glutamine, and an antibiotic solution containing penicillin (100 U/mL), amphotericin B (2.5 µg/mL), and streptomycin (100 µg/mL). The cells were maintained in a 5% humidified CO2 incubator (NBS Eppendorf, Germany) at 37°C. To induce differentiation into macrophages, the THP-1 cell line was treated with 25 ng/mL phorbol 12-myristate 13-acetate (PMA) (cat. 91585, Sigma-Aldrich, USA) and incubated for 48 hours. Following incubation, the cells were seeded in a 96-well culture plate at a density of 5x10^4 cells/well and incubated for 24 hours in a humidified 5% CO2 incubator at 37°C.
Inverted phase contrast microscopy (IPCM) using an Olympus CKX41 microscope (Olympus, Japan) equipped with an Optika Pro5 CCD camera (Optika, Italy) was utilized to directly observe the cells. Cell viability was determined using the MTT (3-(4,5-Dimethylthiazol-2-yl)-2,5-diphenyltetrazolium bromide) assay (Sigma, M-5655). […] The absorbance of this colored solution can be quantified by measuring at approximately 570 nm using a spectrophotometer.
The whole plate was analyzed under a microscope with an IPCM, and the results were photographed. […] The purple formazan crystals were dissolved in dimethyl sulfoxide (DMSO) and the absorbance (OD) was measured at 570 nm using a microplate reader. […]

[4] = test system: LOX; test: Lipoxygenase (LOX) activity inhibition in lysate of Pg-LPS stimulated THP-1 cells; conditions: for LOX Percentage inhibition Average / LOX Percentage inhibition 1 / LOX Percentage inhibition 2: Pg-LPS 1 µg/mL, 24 h; for LOX Percentage inhibition Average: mean of duplicates; for LOX Percentage inhibition 1: replicate 1; for LOX Percentage inhibition 2: replicate 2
Description: as §1
The lipoxygenase (LOX) activity was determined using the method described by Axelrod in 1981 [12]. The reaction mixture consisted of 50 µL of cell lysate, Tris-HCl buffer (pH 7.4), and 200 µL of sodium linoleate. By determining absorbance at 234 nm (Agilent Cary 60), the formation of […], an indicator of LOX activity, was tracked. The percentage inhibition of the enzyme was computed as […]

[5] = 6.25, 12.5, and 25 ng/mL, Pg-LPS stimulated

Question: “β-defensin 1: β-Defensin 1 peptide was purchased from ThermoFisher Scientific, USA; cationic antimicrobial peptide (DHYNCVSSGGQCLYSACPIFTKIQGTCYRGKAKCCK; ends and bridges not checked; cysteine pairing not given here; UniProt P60022 33-68, looked up)” was tested. Which “COX Percentage inhibition Average” value ([1]; 6.25 ng/mL) did it give?
Answer: The value was 19.085%.

Question: And the “COX Percentage inhibition 1” value ([1]; 6.25 ng/mL)?
Answer: The value was 19.77%.

Question: What about the “COX Percentage inhibition 2” value ([1]; 6.25 ng/mL) of the same substance?
Answer: The value was 18.4%.

Question: What about the “COX Percentage inhibition Average” value ([1]; 12.5 ng/mL) of the same substance?
Answer: The value was 35.75%.

Question: What about the “COX Percentage inhibition 1” value ([1]; 12.5 ng/mL) of the same substance?
Answer: Its value is 36.41%.

Question: And the “COX Percentage inhibition 2” value ([1]; 12.5 ng/mL)?
Answer: Its value is 35.09%.

Question: And the “COX Percentage inhibition Average” value ([1]; 25 ng/mL)?
Answer: Its value is 53.03%.

Question: What about the “COX Percentage inhibition 1” value ([1]; 25 ng/mL) of the same substance?
Answer: Its value is 53.21%.

Question: What about the “COX Percentage inhibition 2” value ([1]; 25 ng/mL) of the same substance?
Answer: The value was 52.85%.

Question: And the “COX percentage inhibition (in words)” value [1, 5]?
Answer: Its value is “increased in a concentration-dependent manner”.

Question: And the “IC50 (COX inhibition assay)” value ([1]; Pg-LPS 1 µg/mL 1 h, then β-defensin 1 24 h)?
Answer: The value was 0.02262 µg/mL.

Question: And the “Inducible nitric oxide synthase Percentage inhibition Average” value ([2]; 6.25 ng/mL)?
Answer: The value was 19.08%.

Question: And the “Inducible nitric oxide synthase Percentage inhibition 1” value ([2]; 6.25 ng/mL)?
Answer: Its value is 18.99%.

Question: What about the “Inducible nitric oxide synthase Percentage inhibition 2” value ([2]; 6.25 ng/mL) of the same substance?
Answer: Its value is 19.17%.

Question: And the “Inducible nitric oxide synthase Percentage inhibition Average” value ([2]; 12.5 ng/mL)?
Answer: The value was 34.275%.

Question: And the “Inducible nitric oxide synthase Percentage inhibition 1” value ([2]; 12.5 ng/mL)?
Answer: Its value is 34.63%.

Question: And the “Inducible nitric oxide synthase Percentage inhibition 2” value ([2]; 12.5 ng/mL)?
Answer: Its value is 33.92%.

Question: What about the “Inducible nitric oxide synthase Percentage inhibition Average” value ([2]; 25 ng/mL) of the same substance?
Answer: Its value is 50.135%.

Question: And the “Inducible nitric oxide synthase Percentage inhibition 1” value ([2]; 25 ng/mL)?
Answer: Its value is 50.27%.

Question: And the “Inducible nitric oxide synthase Percentage inhibition 2” value ([2]; 25 ng/mL)?
Answer: The value was 50%.

Question: And the “inducible nitric oxide synthase percentage inhibition (in words)” value [2, 5]?
Answer: Its value is “increased in a concentration-dependent manner”.

Question: What about the “cytotoxicity (in words)” value [3] of the same substance?
Answer: The value was “dose-dependent cytotoxicity”.

Question: And the “LOX Percentage inhibition Average” value ([4]; 6.25 ng/mL)?
Answer: The value was 21.485%.

Question: What about the “LOX Percentage inhibition 1” value ([4]; 6.25 ng/mL) of the same substance?
Answer: Its value is 21.23%.

Question: What about the “LOX Percentage inhibition 2” value ([4]; 6.25 ng/mL) of the same substance?
Answer: Its value is 21.74%.

Question: What about the “LOX Percentage inhibition Average” value ([4]; 12.5 ng/mL) of the same substance?
Answer: The value was 38.08%.

Question: And the “LOX Percentage inhibition 1” value ([4]; 12.5 ng/mL)?
Answer: The value was 38.85%.

Question: What about the “LOX Percentage inhibition 2” value ([4]; 12.5 ng/mL) of the same substance?
Answer: Its value is 37.31%.

Question: And the “LOX Percentage inhibition Average” value ([4]; 25 ng/mL)?
Answer: Its value is 54.675%.

Question: And the “LOX Percentage inhibition 1” value ([4]; 25 ng/mL)?
Answer: The value was 55.2%.

Question: What about the “LOX Percentage inhibition 2” value ([4]; 25 ng/mL) of the same substance?
Answer: The value was 54.15%.

Question: What about the “LOX percentage inhibition (in words)” value [4, 5] of the same substance?
Answer: The value was “increased in a concentration-dependent manner”.
